In article PMC7339578, “Multiple circulating alkaloids and saponins from intravenous Kang-Ai injection inhibit human cytochrome P450 and UDP-glucuronosyltransferase isozymes: potential drug–drug interactions” (Chinese Medicine, 2020):
Where “and” joins values, the source holds several entries; their conditions need not be identical. Equal values may be shown once. Read-outs that look alike come from different tables or passages of the source.

Key:
Type in all cases: in vivo, Sprague–Dawley rats
[1] = Urinary (renal) excretion in rats after a 30-min infusion of Kang-Ai injection
Description: (§1) For urine sampling, the rats were housed singly in metabolic cages. And then, the urine samples were collected at 0–4, 4–8 and 8–12 h after starting infusion and were weighed. Likewise, bile samples were also collected at 0–3, 3–6, 6–9 and 9–12 h after starting infusion and were weighed. The urine and bile collection tubes were all frozen at − 80 °C.
(§2) Pharmacokinetic parameters were estimated by non-compartmental analysis using WinNonlin 6.3 software (Pharsight, NC, US). Data are presented as the mean ± SD (n = 3). The area under the concentration–time curve up to the last measured point in time (AUC0-t) was calculated using the trapezoidal rule. The total plasma clearance (CLtot, p) was calculated by dividing the compound dose by the AUC0-∞, and the distribution volume at steady state (VSS) was estimated by multiplying the CLtot, p by the mean residence time (MRT). The renal excretory clearance (CLR) and hepatobiliary (CLB) was determined by dividing the cumulative amount excreted into urine (Cum.Ae-U) and bile (Cum.Ae-B) by the plasma AUC0-∞, respectively. The fractions of dose excreted into urine (fe-U) and the fractions of dose excreted into bile (fe-B) were established using the relationship Cum.Ae-U/Dose and Cum.Ae-B/Dose, respectively. Mean differences between treatment and control groups were analyzed by two-tailed unpaired Student’s t test by Graphpad Prism V5 software (SanDiego, CA). The level of significance was set at p < 0.05 (∗), p < 0.01 (∗∗) or p < 0.001 (∗∗∗).

[2] = Biliary (hepatobiliary) excretion in rats after a 30-min infusion of Kang-Ai injection
Description: as §1, §2

[3] = Plasma pharmacokinetics in rats after a 30-min intravenous infusion of Kang-Ai injection
Description: Specific pathogen free (SPF) grade male Sprague–Dawley rats (250 ± 20) g were provided by the Experimental Animal Center of Zhengzhou University (Zhengzhou, China). These rats were kept in a designated animal room at constant temperature (22 ± 2) °C and humidity (50 ± 20) % with 12 h of light/dark per day and free access to water and food. All protocols of animal experiments were approved in accordance with the Regulations of Experimental Animal Administration issued by the Ethics Review Committee for Animal Experimentation of Jinan University (Ethical Review NO. 20190301010). Prior to the experiments, the rats were fasted for 12 h but with free access to water. After study use, the rats were euthanized with CO2 gas.
The rats in this study all received a single 30-min intravenous infusion of Kang-Ai injection via the tail veins using TYD01-02 infusion pumps (Lead Fluid, Baoding, China). The dose was derived from the label daily dose of Kang-Ai injection (60 mL/person, once daily) according to dose normalization by body surface area. For plasma pharmacokinetic studies, the rats were randomly received a single intravenous 30 min-bolus dose at 6 mL/kg. Blood samples (100 μL) were collected from the rats’ external jugular veins into heparinized polypropylene tubes at 5, 15, 30, 45 min, and 1, 1.5, 2, 3, 4, 6, 8, 12 h. After gently shaking for 10 s, the blood samples were centrifuged at 13000 g for 10 min to yield plasma samples, which were kept frozen at − 80 °C until analysis.
as §2

[4] = rat urine 0–12 h, Kang-Ai injection 6 mL/kg iv
[5] = rat bile 0–12 h, Kang-Ai injection 6 mL/kg iv
[6] = male, Sprague-Dawley, rat, in vivo, iv

With `CC(C)=CCC[C@](C)(O[C@@H]1O[C@H](CO)[C@@H](O)[C@H](O)[C@H]1O)[C@H]1CC[C@]2(C)[C@@H]1[C@H](O)C[C@@H]1[C@@]3(C)CC[C@H](O)C(C)(C)[C@@H]3[C@@H](O)C[C@]12C` [Compound C2, Ginsenoside F1] the “fe-U,0–12h (fraction of dose excreted into urine)” value [1, 4] was 23.37 ± 7.94% and the “fe-B,0–12h (fraction of dose excreted into bile)” value [2, 5] was 24.20 ± 4.93%.
For `O=c1cccc2n1C[C@H]1C[C@@H]2CN2CC[C@H](O)C[C@H]12` [Compound A5, Baptifoline], the t1/2 ([3]; rat plasma, 30-min iv infusion of Kang-Ai injection 6 mL/kg) was 2.15 ± 0.50 h, the Cmax ([3]; rat plasma, 30-min iv infusion of Kang-Ai injection 6 mL/kg, read-out: Cmax) was 264 ± 47.2 nM and the “fe-U,0–12h (fraction of dose excreted into urine)” value [1, 4] was 37.56 ± 15.13%. The “fe-B,0–12h (fraction of dose excreted into bile)” value [2, 5] was 10.30 ± 1.11%.
For `CC(C)(O)[C@@H]1CC[C@](C)([C@H]2[C@@H](O)C[C@@]3(C)[C@@H]4C[C@H](O[C@@H]5O[C@H](CO)[C@@H](O)[C@H](O)[C@H]5O)[C@H]5C(C)(C)[C@@H](O[C@@H]6OC[C@@H](O)[C@H](O)[C@H]6O[C@@H]6O[C@H](CO)[C@@H](O)[C@H](O)[C@H]6O)CC[C@@]56C[C@@]46CC[C@]23C)O1` [Compound B4, Astragaloside VI], the “fe-U,0–12h (fraction of dose excreted into urine)” value [1, 4] was 63.43 ± 11.75%.
For `CC(C)=CCC[C@](C)(O[C@@H]1O[C@H](CO[C@@H]2O[C@@H](CO)[C@H](O)[C@H]2O)[C@@H](O)[C@H](O)[C@H]1O)[C@H]1CC[C@]2(C)[C@@H]1[C@H](O)C[C@@H]1[C@@]3(C)CC[C@H](O)C(C)(C)[C@@H]3[C@@H](O[C@@H]3O[C@H](CO)[C@@H](O)[C@H](O)[C@H]3O)C[C@]12C` [Compound C11, Ginsenoside Re4], the “fe-U,0–12h (fraction of dose excreted into urine)” value ([1]; rat, in vivo, iv) was 48.30 ± 10.27%.
In the case of `CC(C)=CC/C=C(\C)[C@H]1CC[C@]2(C)[C@@H]1[C@H](O)C[C@@H]1[C@@]3(C)CC[C@H](O)C(C)(C)[C@@H]3[C@@H](O[C@@H]3O[C@H](CO)[C@@H](O)[C@H](O)[C@H]3O)C[C@]12C` [Compound E2, Ginsenoside Rh4], the “fe-B,0–12h (fraction of dose excreted into bile)” value [2, 5] is reported as 46.95 ± 6.46%.
In the case of `CC(C)=CCC[C@](C)(O[C@@H]1O[C@H](CO)[C@@H](O)[C@H](O)[C@H]1O)[C@H]1CC[C@]2(C)[C@@H]1[C@H](O)C[C@@H]1[C@@]3(C)CC[C@H](O)C(C)(C)[C@@H]3[C@@H](O[C@@H]3O[C@H](CO)[C@@H](O)[C@H](O)[C@H]3O[C@@H]3OC[C@@H](O)[C@H](O)[C@H]3O)C[C@]12C` [Compound C10, Ginsenoside R1], the “fe-U,0–12h (fraction of dose excreted into urine)” value [1, 4] is reported as 40.28 ± 5.48%.
For `O=C1C=CC[C@@H]2[C@H]3C[C@H](O)CN4CCC[C@@H](CN12)[C@@H]34` [Compound A6, 9α-hydroxysophocarpine], the “CLtot, p” value ([3]; rat, in vivo, iv) was 47.70 ± 10.72 mL/h, the Cmax ([3]; rat, in vivo, iv) was 344 ± 40.7 nM and the VSS ([3]; rat, in vivo, iv) was 93.63 ± 24.86 mL. For the same compound, the t1/2 ([3]; rat, in vivo, iv) was 2.16 ± 1.28 h, the “CLR (renal excretory clearance)” value ([1]; rat, in vivo, iv) was 6.23 ± 2.97 mL/h and the “fe-U,0–12h (fraction of dose excreted into urine)” value ([1]; rat, in vivo, iv) was 12.92 ± 4.98%. For the same compound, the “CLB (hepatobiliary clearance)” value ([2]; rat, in vivo, iv) was 5.86 ± 1.10 mL/h and the “fe-B,0–12h (fraction of dose excreted into bile)” value ([2]; rat, in vivo, iv) was 12.50 ± 1.32%.
With 9α-hydroxysophoramine [Compound A4] the “fe-U,0–12h (fraction of dose excreted into urine)” value ([1]; rat, in vivo, iv) was 42.80 ± 14.69% and the “fe-B,0–12h (fraction of dose excreted into bile)” value ([2]; rat, in vivo, iv) was 11.14 ± 1.05%.
For `CC(C)=CCC[C@](C)(O[C@@H]1O[C@H](CO[C@@H]2OC[C@H](O)[C@H](O)[C@H]2O)[C@@H](O)[C@H](O)[C@H]1O)[C@H]1CC[C@]2(C)[C@@H]1[C@H](O)C[C@@H]1[C@@]3(C)CC[C@H](O)C(C)(C)[C@@H]3[C@@H](O)C[C@]12C` [Compound C4, Ginsenoside F3], the “fe-U,0–12h (fraction of dose excreted into urine)” value [1, 6] was 24.46 ± 3.37% and the “fe-B,0–12h (fraction of dose excreted into bile)” value [2, 6] was 67.93 ± 8.80%.
With `C=C(CCC=C(C)C)[C@H]1CC[C@]2(C)[C@@H]1[C@H](O)C[C@@H]1[C@@]3(C)CC[C@H](O)C(C)(C)[C@@H]3[C@@H](O[C@@H]3O[C@H](CO)[C@@H](O)[C@H](O)[C@H]3O[C@@H]3O[C@@H](C)[C@H](O)[C@@H](O)[C@H]3O)C[C@]12C` [Compound E3, Ginsenoside Rg6] the “fe-B,0–12h (fraction of dose excreted into bile)” value ([2]; rat, in vivo, iv) was 31.31 ± 6.25%.
In the case of `CC(C)=CCC[C@](C)(O[C@@H]1O[C@H](CO)[C@@H](O)[C@H](O)[C@H]1O)[C@H]1CC[C@]2(C)[C@@H]1[C@H](O)C[C@@H]1[C@@]3(C)CC[C@H](O)C(C)(C)[C@@H]3[C@@H](O[C@@H]3O[C@H](CO)[C@@H](O)[C@H](O)[C@H]3O[C@@H]3O[C@H](CO)[C@@H](O)[C@H](O)[C@H]3O)C[C@]12C` [Compound C13, 20-Gluco-Ginsenoside Rf], the “fe-U,0–12h (fraction of dose excreted into urine)” value ([1]; rat, in vivo, iv) is reported as 38.72 ± 6.57%.
For `CC(C)=CCC[C@](C)(O[C@@H]1O[C@H](CO[C@@H]2O[C@H](CO)[C@@H](O)[C@H](O)[C@H]2O)[C@@H](O)[C@H](O)[C@H]1O)[C@H]1CC[C@]2(C)[C@@H]1[C@H](O)C[C@@H]1[C@@]3(C)CC[C@H](O)C(C)(C)[C@@H]3[C@@H](O[C@@H]3O[C@H](CO)[C@@H](O)[C@H](O)[C@H]3O)C[C@]12C` [Compound C12, Notoginsenoside R3], the “fe-U,0–12h (fraction of dose excreted into urine)” value ([1]; rat, in vivo, iv) was 36.16 ± 7.04%.
In the case of `O=C1CCCC2=C3CCC[N+]4([O-])CCC[C@@H](CN12)[C@@H]34` (stereo partly drawn) [Compound A7, Leontalbinine N-oxide], the “CLtot, p” value ([3]; rat, in vivo, iv) is reported as 20.03 ± 4.84 mL/h, the Cmax ([3]; rat, in vivo, iv) is reported as 202 ± 19.1 nM and the MRT ([3]; rat, in vivo, iv) is reported as 7.94 h. The VSS ([3]; rat, in vivo, iv) was 150.70 ± 19.02 mL, the t1/2 ([3]; rat, in vivo, iv) was 5.73 ± 1.74 h and the “CLR (renal excretory clearance)” value ([1]; rat, in vivo, iv) was 12.32 ± 4.14 mL/h. The “fe-U,0–12h (fraction of dose excreted into urine)” value ([1]; rat, in vivo, iv) was 61.05 ± 10.61%, the “CLB (hepatobiliary clearance)” value ([2]; rat, in vivo, iv) was 1.42 ± 0.17 mL/h and the “fe-B,0–12h (fraction of dose excreted into bile)” value ([2]; rat, in vivo, iv) was 7.30 ± 1.41%.
With `CC(C)(O[C@@H]1O[C@H](CO)[C@@H](O)[C@H](O)[C@H]1O)[C@@H]1CC[C@](C)([C@H]2[C@@H](O)C[C@@]3(C)[C@@H]4C[C@H](O)[C@H]5C(C)(C)[C@@H](O[C@@H]6OC[C@@H](O)[C@H](O)[C@H]6O)CC[C@@]56C[C@@]46CC[C@]23C)O1` [Compound B1, Isoastragaloside IV] the “fe-B,0–12h (fraction of dose excreted into bile)” value ([2]; rat, in vivo, iv) was 30.40 ± 3.79%.
With `CC(C)=CC/C=C(/C)[C@H]1CC[C@]2(C)[C@@H]1[C@H](O)C[C@@H]1[C@@]3(C)CC[C@H](O)C(C)(C)[C@@H]3[C@@H](O[C@@H]3O[C@H](CO)[C@@H](O)[C@H](O)[C@H]3O[C@@H]3O[C@@H](C)[C@H](O)[C@@H](O)[C@H]3O)C[C@]12C` [Compound E4, Ginsenoside F4] the “fe-B,0–12h (fraction of dose excreted into bile)” value ([2]; rat, in vivo, iv) was 29.36 ± 3.14%.
In the case of `C=C(CCC=C(C)C)[C@H]1CC[C@]2(C)[C@@H]1[C@H](O)C[C@@H]1[C@@]3(C)CC[C@H](O)C(C)(C)[C@@H]3[C@@H](O[C@@H]3O[C@H](CO)[C@@H](O)[C@H](O)[C@H]3O)C[C@]12C` [Compound E1, Ginsenoside Rk3], the “fe-B,0–12h (fraction of dose excreted into bile)” value ([2]; rat, in vivo, iv) is reported as 27.80 ± 7.01%.
In the case of `CC(C)=CCC[C@](C)(O[C@@H]1O[C@H](CO)[C@@H](O)[C@H](O)[C@H]1O)[C@H]1CC[C@]2(C)[C@@H]1[C@H](O)C[C@@H]1[C@@]3(C)CC[C@H](O[C@@H]4O[C@H](CO)[C@@H](O)[C@H](O)[C@H]4O)C(C)(C)[C@@H]3CC[C@]12C` [Compound D1, Ginsenoside F2], the “fe-B,0–12h (fraction of dose excreted into bile)” value [2, 5] is reported as 7.46% and 7.46 ± 2.11%.
With `CC(C)(O[C@@H]1O[C@H](CO)[C@@H](O)[C@H](O)[C@H]1O)[C@@H]1CC[C@](C)([C@H]2[C@@H](O)C[C@@]3(C)[C@@H]4C[C@H](O)[C@H]5C(C)(C)[C@@H](O[C@@H]6OC[C@@H](O)[C@H](O)[C@H]6O[C@@H]6O[C@H](CO)[C@@H](O)[C@H](O)[C@H]6O)CC[C@@]56C[C@@]46CC[C@]23C)O1` [Compound B5, Astragaloside V] the “fe-U,0–12h (fraction of dose excreted into urine)” value ([1]; rat, in vivo, iv) was 51.36 ± 7.44%.
